From patent US4193996A, “Spiro-quinolone hydantoins” (Pfizer Inc., priority 1979, dated 1980)

What was measured:
aldose reductase = test: Inhibition of aldose reductase enzyme activity (partially purified enzyme from calf lens); assay type: biochemical
Method: The compounds of Examples 3 and 4 were tested for their ability to reduce or inhibit aldose reductase enzyme activity, following the procedure described in U.S. Pat. No. 3,821,383 and based on the procedure of Hayman et. al., Journal of Biological Chemistry, 240, 877 (1965). The substrate employed was partially purified aldose reductase enzyme obtained from calf lens.

[1] = tested on: sorbitol accumulation in the sciatic nerve; test: Inhibition of sorbitol accumulation in the sciatic nerve of streptozotocinized (diabetic) rats; assay type: in vivo, rat; conditions: oral, at 4, 8 and 24 hours after streptozotocin, measured 27 hours after induction of diabetes
Method: The compounds of Examples 3 and 4 were tested for their ability to reduce or inhibit sorbitol accumulation in the sciatic nerve of streptozotocinized (i.e. diabetic) rats by the procedure essentially described in U.S. Pat. No. 3,821,383. In the present study, the amount of sorbitol accumulation in the sciatic nerves was measured 27 hours after induction of diabetes. The compounds were administered orally at the dose levels indicated at 4, 8 and 24 hours following the administration of streptozotocin. The results obtained in this manner are presented below in terms of percent inhibition (%) afforded by the test compound as compared to the case where no compound was administered (i.e. the untreated animal, where sorbitol levels normally rise from approximately […]. tissue in the 27-hour test period): […]

Row | % Inhibition at 10^-6 m (inhibition of aldose reductase enzyme activity) (aldose reductase) | Compound | % Inhibition at 1.5 mg/kg (sorbitol accumulation in the sciatic nerve vs untreated) [1]
1 | 86% | O=C1NC(=O)C2(CCn3c(=O)ccc4cccc2c43)N1 (stereo not shown) [Example 3, Spiro[2,3-dihydro-1H, 5H-benzo[ij]quinolizin [1,4']imidazolidin]-2', 5, 4'-trione] | 27%
2 | 94% | O=C1NC(=O)C2(CCn3c(=O)ccc4cc(Cl)cc2c43)N1 (stereo not shown) [Example 4, 10-Chloro-spiro[2,3-dihydro-1H, 5H-benzo[ij]quinolizin[1,4']imidazolidin]-2', 5, 5'-trione] | 32%
